Here are results for 60 compounds from PubChem BioAssay AID588639 (Sanford-Burnham Center for Chemical Genomics, 2011).

Structures are written as SMILES. Several values for one entry are separate records, joined by “and”; a condition that tells them apart may be missing. Identical values can stand only once. Activity calls are given as the source filed them. No rule for the calls is given here.

For this assay, the target named is Alkaline phosphatase, tissue-nonspecific isozyme (Homo sapiens) (UniProt P05186). Kind of assay: human TNAP enzyme inhibitors, SAR follow-up, selectivity assay for mouse IAP inhibitor project, biochemical, set 2 (AID 588639). The following applies: purified human TNAP enzyme activity, counter-screen for mouse IAP.
Alkaline phosphatase, tissue-nonspecific isozyme (Homo sapiens), sequence (P05186 whole entry, looked up): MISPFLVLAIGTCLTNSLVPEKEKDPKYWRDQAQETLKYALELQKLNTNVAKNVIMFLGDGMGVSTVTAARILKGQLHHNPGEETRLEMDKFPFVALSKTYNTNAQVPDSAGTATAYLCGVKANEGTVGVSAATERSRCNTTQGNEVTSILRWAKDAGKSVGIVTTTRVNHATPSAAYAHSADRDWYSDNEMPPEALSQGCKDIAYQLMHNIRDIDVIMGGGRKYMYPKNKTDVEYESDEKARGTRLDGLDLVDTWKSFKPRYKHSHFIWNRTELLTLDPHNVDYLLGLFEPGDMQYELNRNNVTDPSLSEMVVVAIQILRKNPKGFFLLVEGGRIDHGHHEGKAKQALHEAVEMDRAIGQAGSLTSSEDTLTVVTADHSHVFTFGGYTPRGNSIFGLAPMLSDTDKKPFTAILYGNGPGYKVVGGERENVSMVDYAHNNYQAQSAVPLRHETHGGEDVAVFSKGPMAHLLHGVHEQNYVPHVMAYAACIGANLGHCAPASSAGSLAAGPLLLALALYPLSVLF
With `O=C(CCCNS(=O)(=O)c1ccc2[nH]c(=O)oc2c1)NCc1ccccc1Cl`, the IC50 (in general, the midpoint of a concentration-inhibition curve) is 80.9 µM and > 100 µM (inactive).
For `O=C(N/N=C/c1c(F)cccc1Cl)c1ccc(O)cc1` the value was > 100 µM (inactive).
Consider `O=C(CCNS(=O)(=O)c1ccc2[nH]c(=O)oc2c1)NCc1ccccc1F`, for which the IC50 is > 100 µM (inactive).
`Cc1ccc(NC(=O)CCNS(=O)(=O)c2ccc3[nH]c(=O)oc3c2)cc1C`: the IC50 was > 100 µM (inactive).
The same measure for `O=C(CCS(=O)(=O)Nc1ccc2[nH]c(=O)oc2c1)NCc1ccccc1Cl`: > 100 µM (inactive); for `Cc1ccc(C)c(NC(=O)CNS(=O)(=O)c2ccc3[nH]c(=O)oc3c2)c1`: > 100 µM (inactive) and 34.8 µM.
For `CSc1cccc(NC(=O)C2CCCN(S(=O)(=O)c3ccc4c(c3)oc(=O)n4C)C2)c1` (stereo not given) the value was > 100 µM (inactive); for `COc1ccc(C(=O)N/N=C/c2c(F)cccc2Cl)cc1OC`, > 100 µM (inactive); for `COc1ccc(CNS(=O)(=O)c2ccc3[nH]c(=O)oc3c2)c(OC)c1`, > 100 µM (inactive).
For `Cc1ccc(C)c(CNC(=O)C2CCCN(S(=O)(=O)c3ccc4[nH]c(=O)oc4c3)C2)c1` (stereo not given) the value was > 100 µM (inactive); for `O=C(N/N=C/c1ccc(F)cc1F)c1ccc(O)cc1`, > 100 µM (inactive).
As for `COc1ccc(NC(=O)CCCNS(=O)(=O)c2ccc3[nH]c(=O)oc3c2)cc1OC`, the IC50 is > 100 µM (inactive).
On to `Cc1ccc(CNC(=O)C2CCCN(S(=O)(=O)c3ccc4[nH]c(=O)oc4c3)C2)cc1` (stereo not given), for which the IC50 is > 100 µM (inactive).
The same measure for `COc1ccc(NC(=O)CCNS(=O)(=O)c2ccc3ccccc3c2)cc1OC`: > 100 µM (inactive); for `Cc1ccc(C)c(NC(=O)CCNS(=O)(=O)c2ccc3ccccc3c2)c1`: > 100 µM (inactive); for `O=C(N/N=C/c1cc(Br)ccc1F)c1ccc(O)cc1`: > 100 µM (inactive).
The same measure for `CCc1ccc(NC(=O)C2CCCN(S(=O)(=O)c3ccc4c(c3)oc(=O)n4C)C2)cc1` (stereo not given): > 100 µM (inactive); for `COc1cccc(CNC(=O)CNS(=O)(=O)c2ccc3[nH]c(=O)oc3c2)c1`: > 100 µM (inactive) and 73.8 µM; for `O=C(CCNS(=O)(=O)c1ccc2[nH]c(=O)oc2c1)NCc1cccc(C(F)(F)F)c1`: > 100 µM (inactive).
For `O=C(N/N=C/c1ccccc1F)c1ccc(O)cc1` the value was > 100 µM (inactive); for `CCOc1cc(C(=O)N/N=C/c2c(F)cccc2Cl)cc(OCC)c1OCC`, > 100 µM (inactive); for `COc1ccc(NS(=O)(=O)c2ccc3[nH]c(=O)oc3c2)cc1OC`, > 100 µM (inactive).
Turning to `O=C(CCNS(=O)(=O)c1ccc2[nH]c(=O)oc2c1)NCc1ccc(C(F)(F)F)cc1`, the IC50 was > 100 µM (inactive).
For `COc1ccc(CNC(=O)CCNS(=O)(=O)c2ccc3ccccc3c2)c(OC)c1` the value was > 100 µM (inactive); for `O=C(CNS(=O)(=O)c1ccc2[nH]c(=O)oc2c1)NCCc1ccc2c(c1)OCO2`, > 100 µM (inactive).
The same measure for `N#Cc1ccc(NS(=O)(=O)c2ccc3[nH]c(=O)oc3c2)cc1`: > 100 µM (inactive); for `O=c1[nH]c2ccc(S(=O)(=O)NCc3ccc4c(c3)OCO4)cc2o1`: > 100 µM (inactive).
For `COc1ccc(OC)c(NC(=O)CCNS(=O)(=O)c2ccc3c(c2)oc(=O)n3C)c1` the value was > 100 µM (inactive); for `O=C(CCS(=O)(=O)Nc1ccc2[nH]c(=O)oc2c1)NCc1cccc(F)c1`, > 100 µM (inactive); for `O=C(CCCNS(=O)(=O)c1ccc2[nH]c(=O)oc2c1)NCc1ccc2c(c1)OCO2`, > 100 µM (inactive).
On to `O=C(CCNS(=O)(=O)c1ccc2[nH]c(=O)oc2c1)NCc1cccc(F)c1`, for which the IC50 is > 100 µM (inactive).
As to `O=C(CCNS(=O)(=O)c1ccc2[nH]c(=O)oc2c1)NCc1ccc(Cl)cc1`, the IC50 is > 100 µM (inactive).
For `C/C(=N\NC(=O)c1cc(O)c(O)c(O)c1)c1ccc(O)cc1O` the value was > 100 µM (inactive); for `O=c1[nH]c2ccc(S(=O)(=O)NCCc3ccc4c(c3)OCO4)cc2o1`, > 100 µM (inactive); for `COc1cccc(CNS(=O)(=O)c2ccc3[nH]c(=O)oc3c2)c1`, > 100 µM (inactive).
The same measure for `CCc1ccc(NC(=O)CCNS(=O)(=O)c2ccc3c(c2)oc(=O)n3C)cc1`: > 100 µM (inactive).
As to `N#Cc1cccc(NS(=O)(=O)c2ccc3[nH]c(=O)oc3c2)c1`, the IC50 was > 100 µM (inactive).
For `COc1ccc(C(=O)N/N=C/c2ccccc2F)cc1` the value was > 100 µM (inactive); for `Cc1ccccc1CNC(=O)C1CCCN(S(=O)(=O)c2ccc3[nH]c(=O)oc3c2)C1` (stereo not given), > 100 µM (inactive); for `O=C(CCNS(=O)(=O)c1ccc2[nH]c(=O)oc2c1)NCc1ccc2c(c1)OCO2`, > 100 µM (inactive).
In the case of `Cc1ccc(NC(=O)CCNS(=O)(=O)c2ccc3c(c2)oc(=O)n3C)cc1`, the IC50 is > 100 µM (inactive).
For `CCOc1cc(C(=O)N/N=C/c2ccccc2F)cc(OCC)c1OCC` the value was > 100 µM (inactive); for `O=C(CCCNS(=O)(=O)c1ccc2[nH]c(=O)oc2c1)NCc1cccc(F)c1`, 51.4 µM and > 100 µM (inactive).
As to `O=C(N/N=C/c1ccccc1F)c1ccccc1OCc1ccccc1`, the IC50 was > 100 µM (inactive).
On to `O=C(N/N=C/c1ccc(F)c(Br)c1)c1cc(O)c(O)c(O)c1`, for which the IC50 is > 100 µM (inactive).
Regarding `COc1ccc(CNS(=O)(=O)c2ccc3[nH]c(=O)oc3c2)cc1`, the IC50 is > 100 µM (inactive).
Regarding `N#Cc1cccc(CNC(=O)CCNS(=O)(=O)c2ccc3[nH]c(=O)oc3c2)c1`, the IC50 is > 100 µM (inactive).
For `O=C(N/N=C/c1c(Cl)cccc1Cl)c1cc(O)c(O)c(O)c1` the value was > 100 µM (inactive); for `CC(C)c1ccc(NC(=O)C2CCCN(S(=O)(=O)c3ccc4c(c3)oc(=O)n4C)C2)cc1` (stereo not given), > 100 µM (inactive); for `N#Cc1ccc(NC(=O)CNS(=O)(=O)c2ccc3[nH]c(=O)oc3c2)cc1`, > 100 µM (inactive) and 81.4 µM.
In the case of `COc1ccc(CNC(=O)CNS(=O)(=O)c2ccc3[nH]c(=O)oc3c2)c(OC)c1`, the IC50 is > 100 µM (inactive).
On to `O=C(N/N=C/c1ccccc1Cl)c1cc(O)c(O)c(O)c1`, for which the IC50 was > 100 µM (inactive).
Regarding `O=C(CCNS(=O)(=O)c1ccc2[nH]c(=O)oc2c1)NCCc1ccc2c(c1)OCO2`, the IC50 is > 100 µM (inactive).
On to `COc1ccc(CNC(=O)CCCNS(=O)(=O)c2ccc3[nH]c(=O)oc3c2)c(OC)c1`, for which the IC50 was > 100 µM (inactive).
The same measure for `O=C(CCNS(=O)(=O)c1ccc2ccccc2c1)NCCc1ccc2c(c1)OCO2`: > 100 µM (inactive); for `COc1ccc(CNC(=O)CNS(=O)(=O)c2ccc3[nH]c(=O)oc3c2)cc1`: > 100 µM (inactive); for `CSc1cccc(NC(=O)CCNS(=O)(=O)c2ccc3c(c2)oc(=O)n3C)c1`: > 100 µM (inactive).
For `O=C(N/N=C/c1c(F)cccc1Cl)c1ccc(O)cc1O` the value was > 100 µM (inactive); for `Cc1ccc(NC(=O)CCNS(=O)(=O)c2ccc3c(c2)oc(=O)n3C)c(C)c1`, > 100 µM (inactive); for `Cc1ccc(C)c(NC(=O)CCNS(=O)(=O)c2ccc3c(c2)CCC3)c1`, > 100 µM (inactive).
